Data on 1 compound can be found in patent US6866861B1, “Method and composition for enhancing milk component concentrations” (Land O'Lakes, Inc., priority 1999, dated 2005).

The subject of this test is cows. Put plainly: Abomasal infusion of glycerol in early lactation cows, milk component concentrations (Example 4). It is filed as in vivo, cow. As to conditions: for Fat / Lactose / Total Solids / True Protein: 150 g/cow/day abomasal, average of 3 cows, early lactation. On the procedure: To determine the weight percent total solids, wet basis, in a sample, the actual weight of total solids is determined by analyzing the sample in accordance with Method #925.23 (33.2.09) of Official Methods of Analysis, Association of Official Analytical Chemists (AOAC) (16th Ed., 1995). The weight percent total solids, wet basis, is then calculated by dividing the actual weight of total solids by the actual weight of the sample. The weight percent of true protein, wet basis, for a particular sample is calculated after first determining the wet basis weight percent of total Kjeldahl nitrogen and the wet basis weight percent of non-protein nitrogen in the sample. The wet basis weight percent of total Kjeldahl nitrogen in the sample is determined using the method referenced above. The wet basis weight percent of non-protein nitrogen (NPN) in the sample is determined in accordance with Method #991.21 (33.2.12) of Official Methods of Analysis, Association of Official Analytical Chemists (AOAC) (16th Ed., 1995). The weight percent of true protein, wet basis, in the sample is then determined by subtracting the wet basis weight percent of non-protein nitrogen in the sample from the wet basis weight percent of total Kjeldahl nitrogen in the sample. To determine the weight percent lactose, wet basis, in a liquid sample, the weight of the liquid sample is first determined. The actual weight of lactose in the liquid sample may then be determined using analysis kit number 176-303, that is available from Boehringer-Mannheim of Indianapolis, Ind. in accordance with the procedural instructions included with analysis kit number 176-303. The weight percent lactose, wet basis, in the liquid sample is then calculated by dividing the actual weight of lactose in the liquid sample by the actual weight of the liquid sample. To determine the weight percent fat, wet basis, in a sample, the actual weight of fat in the sample is determined in accordance with Method #974.09 (33.7.18) of Official Methods of Analysis, Association of Official Analytical Chemists (AOAC) (16th Ed., 1995). The weight percent fat, wet basis, is then calculated by dividing the actual weight of fat in the sample by the actual weight of the sample. In this example, glycerol was abomasally infused into three different cows at a rate of 150 grams per cow per day during a 14 day test period. The rations provided to the cows during the period extending from day 0, prior to abomasal infusion of glycerol, through day 14 of the test period were the same. The only difference in feeding of the cows between day 0 and days 1-14 of the test period were that during days 1-14 the cows were abomasally infused with the dosage of 150 grams of glycerol per cow per day. The glycerol was not combined with any other materials prior to being abomasally infused into the cattle. Milk from the three cows was collected and analyzed prior to infusion (on day 0) and also was collected and analyzed on the third, seventh and fourteenth day of the test period. The results presented in Table 4 below for each milk component for each particular day are averages for the milk collected from the three different cows. The net change for the different milk components presented in Table 4 was calculated by averaging the results of days 3, 7 and 14 for a particular milk component and subtracting the results presented for day 0 for the particular milk component. […] This increase in true protein concentration is particularly significant considering that the test cattle were in the early lactation phase (less than 90 days into milk production) when abomasally infused with glycerol. Typically, when being fed ordinary rations, the concentration of true protein in milk produced by lactating cattle decreases as the early lactation phase progresses.

Where [1] appears, read: abomasal infusion, early lactation phase.
Where [2] appears, read: milk, average of days 3, 7, 14 minus day 0.

In the case of `OCC(O)CO` [glycerol], under setting [1], the “weight percent of fat in the milk (conclusion in words)” value was “substantially stabilized”, the “weight percent of total solids in the milk (conclusion in words)” value is “substantially stabilized” and the “weight percent of true protein in the milk (conclusion in words)” value is “net increase”. Besides, for the setting “milk, Day 3”, the Fat is recorded as 3.80 Wt %, the Lactose is 4.78 Wt. %, the “Total Solids” value worked out at 12.67 Wt. % and the “True Protein” value stood at 3.33 Wt. %. Further, where the note is “milk, Day 7”, the Fat stood at 3.53 Wt %, the Lactose is 4.41 Wt. %, the “Total Solids” value came out at 12.04 Wt. % and the “True Protein” value was determined as 3.32 Wt. %. In addition, under “milk, Day 14”, the Fat was 3.68 Wt %, the Lactose was determined as 4.51 Wt. %, the “Total Solids” value was found to be 12.34 Wt. % and the “True Protein” value is recorded as 3.38 Wt. %. Moreover, under setting [2], the “Fat, Net Change” value is given as −0.11 Wt %; the “Lactose, Net Change” value is recorded as −0.07 Wt. %; the “Total Solids, Net Change” value is −0.05 Wt. %; the “True Protein, Net Change” value is reported as “+0.11 Wt. %”. In addition, the “decrease in the weight percent of lactose” value (milk, net change over test period) is given as 0.07%.
